In patent US8852554B2, “Radiolabelled PDE10 ligands” (Janssen Pharmaceutica NV, priority 2009, dated 2014):
Where “and” joins values, the source holds several entries; their conditions need not be identical. Equal entries are not always repeated.

Assay: Biodistribution studies of the 18F tracers in rats
Type: in vivo, male Wistar rats
Settings: rat
Procedure: Biodistribution studies were carried out in healthy male Wister rats (body weight 200-500 g) at 2 min, 30 min and 60 min post injection (p.i.) (n=3/time point). For |^18F|B-4 only the 2 min and 30 min time points were studied. […] Blood and major organs were collected in tared tubes and weighed. The radioactivity in blood, organs and other body parts was measured using an automated gamma counter. The distribution of radioactivity in different parts of the body at different time points p.i. of the tracer was calculated and expressed as percentage of injected dose (% ID), and as percentage of injected dose per gram tissue (% ID/g) for the selected organs. % ID is calculated as cpm in organ/total cpm recovered. For calculation of total radioactivity in blood, blood mass was assumed to be 7% of the body mass.

retention in the PDE10A-rich region striatum (biodistribution studies): retention | % ID, Blood (i.v., 2 min p.i.): 4.55 ± 0.4 % ID | % ID, Carcass (i.v., 2 min p.i.): 36.93 ± 1.3 % ID | % ID, Cerebellum (i.v., 2 min p.i.): 0.07 % ID and 0.065 ± 0.011 % ID | % ID, Cerebrum total (i.v., 2 min p.i.): 0.32 % ID and 0.317 ± 0.014 % ID | % ID, Cortex (i.v., 2 min p.i.): 0.036 ± 0.007 % ID | % ID, Heart (i.v., 2 min p.i.): 0.62 ± 0.2 % ID | % ID, Hippocampus (i.v., 2 min p.i.): 0.006 ± 0.002 % ID | % ID, Intestines (i.v., 2 min p.i.): 12.02 ± 2.1 % ID | % ID, Kidneys (i.v., 2 min p.i.): 4.99 ± 0.2 % ID | % ID, Liver (i.v., 2 min p.i.): 35.98 ± 3.1 % ID | % ID, Lungs (i.v., 2 min p.i.): 1.12 ± 0.0 % ID | % ID, Rest of cerebrum (i.v., 2 min p.i.): 0.257 ± 0.014 % ID | % ID, Spleen + Pancreas (i.v., 2 min p.i.): 2.37 ± 0.2 % ID | % ID, Stomach (i.v., 2 min p.i.): 2.8 % ID and 2.80 ± 0.2 % ID | % ID, Striatum (i.v., 2 min p.i.): 0.018 ± 0.003 % ID | % ID, Urine (i.v., 2 min p.i.): 0.28 ± 0.1 % ID | % ID/g, Blood (i.v., 2 min p.i.): 0.14 ± 0.04 % ID/g | % ID/g, Cerebellum (i.v., 2 min p.i.): 0.231 ± 0.031 % ID/g | % ID/g, Cerebrum + Cerebellum (i.v., 2 min p.i.): 0.269 ± 0.066 % ID/g | % ID/g, Cerebrum total (i.v., 2 min p.i.): 0.263 ± 0.029 % ID/g | % ID/g, Cortex (i.v., 2 min p.i.): 0.355 ± 0.012 % ID/g | % ID/g, Heart (i.v., 2 min p.i.): 0.45 ± 0.13 % ID/g | % ID/g, Hippocampus (i.v., 2 min p.i.): 0.193 ± 0.031 % ID/g | % ID/g, Liver (i.v., 2 min p.i.): 2.32 ± 0.28 % ID/g | % ID/g, Lungs (i.v., 2 min p.i.): 0.46 ± 0.07 % ID/g | % ID/g, Rest of cerebrum (i.v., 2 min p.i.): 0.248 ± 0.030 % ID/g | % ID/g, Spleen + Pancreas (i.v., 2 min p.i.): 1.17 ± 0.03 % ID/g | % ID/g, Striatum (i.v., 2 min p.i.): 0.467 ± 0.002 % ID/g
Compound: COc1ccc(COc2ccc(-c3nn(CC[18F])cc3-c3ccncc3)cc2)nc1 [[^18F]B-4]
Clearance, 2 min/30 min ratio of % ID/g (normalized for body weight), Blood (i.v.): 1.36 | Clearance, 2 min/30 min ratio of % ID/g (normalized for body weight), Cerebellum (i.v.): 3.82 | Clearance, 2 min/30 min ratio of % ID/g (normalized for body weight), Cerebrum total (i.v.): 2.90 | Clearance, 2 min/30 min ratio of % ID/g (normalized for body weight), Cortex (i.v.): 4.24 | Clearance, 2 min/30 min ratio of % ID/g (normalized for body weight), Hippocampus (i.v.): 3.08 | Clearance, 2 min/30 min ratio of % ID/g (normalized for body weight), Rest of cerebrum (i.v.): 2.87 | Clearance, 2 min/30 min ratio of % ID/g (normalized for body weight), Striatum (i.v.): 1.80 | % ID/g normalized for body weight, Blood (i.v., 2 min p.i.): 0.07 ± 0.01 % ID/g × body wt. in kg | % ID/g normalized for body weight, Cerebellum (i.v., 2 min p.i.): 0.109 % ID/g × body wt. in kg and 0.109 ± 0.01 % ID/g × body wt. in kg | % ID/g normalized for body weight, Cerebrum + Cerebellum (i.v., 2 min p.i.): 0.13 ± 0.01 % ID/g × body wt. in kg | % ID/g normalized for body weight, Cerebrum total (i.v., 2 min p.i.): 0.124 ± 0.01 % ID/g × body wt. in kg | % ID/g normalized for body weight, Cortex (i.v., 2 min p.i.): 0.168 % ID/g × body wt. in kg and 0.168 ± 0.00 % ID/g × body wt. in kg | % ID/g normalized for body weight, Heart (i.v., 2 min p.i.): 0.21 ± 0.06 % ID/g × body wt. in kg | % ID/g normalized for body weight, Hippocampus (i.v., 2 min p.i.): 0.091 % ID/g × body wt. in kg and 0.091 ± 0.01 % ID/g × body wt. in kg | % ID/g normalized for body weight, Kidneys (i.v., 2 min p.i.): 0.63 ± 0.17 % ID/g × body wt. in kg | % ID/g normalized for body weight, Liver (i.v., 2 min p.i.): 1.09 ± 0.08 % ID/g × body wt. in kg | % ID/g normalized for body weight, Lungs (i.v., 2 min p.i.): 0.22 ± 0.03 % ID/g × body wt. in kg | % ID/g normalized for body weight, Rest of cerebrum (i.v., 2 min p.i.): 0.117 ± 0.01 % ID/g × body wt. in kg | % ID/g normalized for body weight, Spleen + Pancreas (i.v., 2 min p.i.): 0.55 ± 0.03 % ID/g × body wt. in kg | % ID/g normalized for body weight, Striatum (i.v., 2 min p.i.): 0.226 % ID/g × body wt. in kg and 0.226 ± 0.01 % ID/g × body wt. in kg | striatum/blood ratio (from % ID/g normalized for body weight) (i.v., 2 min p.i.): 3.47 | striatum/cortex ratio (from % ID/g normalized for body weight) (i.v., 2 min p.i.): 1.35 | striatum/hippocampus ratio (from % ID/g normalized for body weight) (i.v., 2 min p.i.): 2.49
